Our source for the inhibition values is ChEMBL document CHEMBL5442219.

Common to all, as to conditions: Compound concentration 10 µM
Test [1] addresses T1, Alpha-2C adrenergic receptor (Homo sapiens) (UniProt P18825).
T1 sequence (whole entry): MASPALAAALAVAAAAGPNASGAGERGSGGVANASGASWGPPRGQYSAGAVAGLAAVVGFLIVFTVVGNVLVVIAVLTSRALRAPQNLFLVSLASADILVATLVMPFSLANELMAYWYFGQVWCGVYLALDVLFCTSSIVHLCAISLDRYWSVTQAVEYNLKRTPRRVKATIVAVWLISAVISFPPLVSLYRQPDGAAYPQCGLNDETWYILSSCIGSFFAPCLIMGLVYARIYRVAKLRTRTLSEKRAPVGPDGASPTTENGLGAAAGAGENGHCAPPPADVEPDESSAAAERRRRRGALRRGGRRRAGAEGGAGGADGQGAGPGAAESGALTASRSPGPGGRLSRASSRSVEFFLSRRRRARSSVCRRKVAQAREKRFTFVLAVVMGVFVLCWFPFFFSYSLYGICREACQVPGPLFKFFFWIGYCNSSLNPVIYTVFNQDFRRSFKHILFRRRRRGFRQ

The target in test [2] is Beta-2 adrenergic receptor (Homo sapiens) (UniProt P07550).
Beta-2 adrenergic receptor (Homo sapiens), sequence (P07550 whole entry, looked up): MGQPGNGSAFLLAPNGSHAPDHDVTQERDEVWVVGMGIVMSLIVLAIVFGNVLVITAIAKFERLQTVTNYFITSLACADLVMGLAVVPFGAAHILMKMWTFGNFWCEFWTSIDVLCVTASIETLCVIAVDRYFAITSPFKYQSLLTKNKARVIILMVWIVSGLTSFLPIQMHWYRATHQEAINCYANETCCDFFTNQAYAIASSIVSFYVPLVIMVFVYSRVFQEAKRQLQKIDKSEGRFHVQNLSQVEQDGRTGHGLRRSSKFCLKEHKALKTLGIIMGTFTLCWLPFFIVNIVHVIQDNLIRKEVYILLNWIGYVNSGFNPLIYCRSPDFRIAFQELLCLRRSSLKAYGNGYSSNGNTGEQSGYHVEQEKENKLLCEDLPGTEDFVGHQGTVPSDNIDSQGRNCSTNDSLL
The target of test [3] is D(3) dopamine receptor (Homo sapiens) (UniProt P35462).
D(3) dopamine receptor (Homo sapiens), sequence (P35462 whole entry): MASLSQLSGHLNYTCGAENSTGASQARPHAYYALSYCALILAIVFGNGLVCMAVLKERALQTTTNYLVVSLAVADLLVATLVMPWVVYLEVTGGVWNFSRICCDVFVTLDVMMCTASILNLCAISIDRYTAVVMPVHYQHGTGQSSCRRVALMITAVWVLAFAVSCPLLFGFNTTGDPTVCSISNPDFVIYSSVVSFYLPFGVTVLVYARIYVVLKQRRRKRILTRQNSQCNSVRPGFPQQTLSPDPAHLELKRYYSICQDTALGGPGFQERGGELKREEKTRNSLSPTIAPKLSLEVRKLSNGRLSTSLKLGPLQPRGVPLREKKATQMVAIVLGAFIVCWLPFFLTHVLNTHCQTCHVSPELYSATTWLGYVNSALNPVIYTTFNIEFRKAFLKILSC
The target in test [4] is T2, D(4) dopamine receptor (Homo sapiens) (UniProt P21917).
T2 sequence (whole entry): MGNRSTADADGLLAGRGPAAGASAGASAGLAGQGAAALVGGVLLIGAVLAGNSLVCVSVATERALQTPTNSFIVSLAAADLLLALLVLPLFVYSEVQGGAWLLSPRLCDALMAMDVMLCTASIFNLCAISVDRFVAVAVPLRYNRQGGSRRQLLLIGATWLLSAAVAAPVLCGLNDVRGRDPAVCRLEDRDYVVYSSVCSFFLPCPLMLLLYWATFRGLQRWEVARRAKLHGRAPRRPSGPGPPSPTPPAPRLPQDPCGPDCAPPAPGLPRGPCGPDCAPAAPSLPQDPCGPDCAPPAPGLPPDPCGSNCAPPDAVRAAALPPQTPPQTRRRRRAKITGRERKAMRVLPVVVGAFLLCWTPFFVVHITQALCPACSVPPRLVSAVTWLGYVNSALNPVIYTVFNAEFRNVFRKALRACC

Test [5] concerns the target Histamine H1 receptor (Homo sapiens) (UniProt P35367).
For test [6], the target named is Histamine H4 receptor (Homo sapiens) (UniProt Q9H3N8).
Histamine H4 receptor (Homo sapiens), sequence (Q9H3N8 whole entry): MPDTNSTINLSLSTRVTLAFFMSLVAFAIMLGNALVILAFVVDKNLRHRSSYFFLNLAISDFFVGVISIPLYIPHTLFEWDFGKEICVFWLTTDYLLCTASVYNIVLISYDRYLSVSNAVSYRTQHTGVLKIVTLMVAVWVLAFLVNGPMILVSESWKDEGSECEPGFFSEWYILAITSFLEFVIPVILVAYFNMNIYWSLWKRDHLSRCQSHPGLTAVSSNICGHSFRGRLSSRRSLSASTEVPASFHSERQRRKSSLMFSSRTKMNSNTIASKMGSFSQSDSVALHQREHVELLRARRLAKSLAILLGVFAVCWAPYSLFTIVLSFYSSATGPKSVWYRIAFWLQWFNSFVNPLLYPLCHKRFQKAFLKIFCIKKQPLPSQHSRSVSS
Test [7] addresses T3, 5-hydroxytryptamine receptor 1A (Homo sapiens) (UniProt P08908).
T3 sequence (whole entry): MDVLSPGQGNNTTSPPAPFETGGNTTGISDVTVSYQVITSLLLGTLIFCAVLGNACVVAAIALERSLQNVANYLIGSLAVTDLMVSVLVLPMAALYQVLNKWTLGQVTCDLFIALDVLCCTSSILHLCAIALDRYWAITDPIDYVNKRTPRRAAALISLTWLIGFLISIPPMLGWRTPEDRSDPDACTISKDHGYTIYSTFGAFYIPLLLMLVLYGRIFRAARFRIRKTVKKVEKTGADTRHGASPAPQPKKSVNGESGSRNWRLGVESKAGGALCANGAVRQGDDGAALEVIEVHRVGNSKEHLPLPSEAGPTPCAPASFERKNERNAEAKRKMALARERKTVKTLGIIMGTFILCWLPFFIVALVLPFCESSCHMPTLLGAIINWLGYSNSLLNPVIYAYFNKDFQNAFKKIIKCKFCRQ

For test [8], the target named is 5-hydroxytryptamine receptor 1E (Homo sapiens) (UniProt P28566).
5-hydroxytryptamine receptor 1E (Homo sapiens), sequence (P28566 whole entry): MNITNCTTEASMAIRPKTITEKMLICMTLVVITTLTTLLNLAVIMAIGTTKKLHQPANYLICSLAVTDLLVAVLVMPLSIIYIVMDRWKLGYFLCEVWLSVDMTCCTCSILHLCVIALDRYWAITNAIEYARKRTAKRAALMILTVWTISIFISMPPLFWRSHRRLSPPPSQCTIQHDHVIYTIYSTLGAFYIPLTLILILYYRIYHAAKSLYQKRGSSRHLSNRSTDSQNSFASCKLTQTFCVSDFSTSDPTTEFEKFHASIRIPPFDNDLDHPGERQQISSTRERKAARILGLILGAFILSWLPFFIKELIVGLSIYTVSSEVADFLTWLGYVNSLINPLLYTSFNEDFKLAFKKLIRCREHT
For test [9], the target named is 5-hydroxytryptamine receptor 2A (Homo sapiens) (UniProt P28223).
5-hydroxytryptamine receptor 2A (Homo sapiens), sequence (P28223 whole entry): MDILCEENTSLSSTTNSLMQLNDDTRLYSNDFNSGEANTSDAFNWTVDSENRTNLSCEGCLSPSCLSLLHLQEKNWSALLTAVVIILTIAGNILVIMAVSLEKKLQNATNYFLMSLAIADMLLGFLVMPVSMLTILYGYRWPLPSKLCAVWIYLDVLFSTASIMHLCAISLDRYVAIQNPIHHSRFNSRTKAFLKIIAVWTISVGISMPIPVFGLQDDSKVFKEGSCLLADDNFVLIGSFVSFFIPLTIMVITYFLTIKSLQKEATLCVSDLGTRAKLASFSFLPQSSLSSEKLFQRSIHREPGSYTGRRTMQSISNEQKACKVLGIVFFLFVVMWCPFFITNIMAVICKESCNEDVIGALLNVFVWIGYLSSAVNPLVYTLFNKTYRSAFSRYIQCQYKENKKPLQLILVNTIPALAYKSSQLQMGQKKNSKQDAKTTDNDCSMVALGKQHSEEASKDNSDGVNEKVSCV
Test [10] deals with 5-hydroxytryptamine receptor 2B (Homo sapiens) (UniProt P41595).
5-hydroxytryptamine receptor 2B (Homo sapiens), sequence (P41595 whole entry): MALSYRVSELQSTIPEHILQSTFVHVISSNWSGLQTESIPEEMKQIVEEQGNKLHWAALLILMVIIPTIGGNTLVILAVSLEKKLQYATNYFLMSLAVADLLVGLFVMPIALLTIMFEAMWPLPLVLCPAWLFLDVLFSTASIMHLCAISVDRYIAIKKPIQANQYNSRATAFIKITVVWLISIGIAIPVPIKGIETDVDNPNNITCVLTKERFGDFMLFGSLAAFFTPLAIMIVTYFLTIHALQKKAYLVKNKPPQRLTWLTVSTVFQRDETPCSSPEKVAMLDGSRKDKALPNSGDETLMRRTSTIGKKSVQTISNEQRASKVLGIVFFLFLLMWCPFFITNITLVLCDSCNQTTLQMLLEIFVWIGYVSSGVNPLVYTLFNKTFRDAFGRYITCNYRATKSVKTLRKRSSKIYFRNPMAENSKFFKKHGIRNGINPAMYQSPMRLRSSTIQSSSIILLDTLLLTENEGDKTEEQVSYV
Test [11] concerns the target T4, 5-hydroxytryptamine receptor 2C (Homo sapiens) (UniProt P28335).
T4 sequence (whole entry): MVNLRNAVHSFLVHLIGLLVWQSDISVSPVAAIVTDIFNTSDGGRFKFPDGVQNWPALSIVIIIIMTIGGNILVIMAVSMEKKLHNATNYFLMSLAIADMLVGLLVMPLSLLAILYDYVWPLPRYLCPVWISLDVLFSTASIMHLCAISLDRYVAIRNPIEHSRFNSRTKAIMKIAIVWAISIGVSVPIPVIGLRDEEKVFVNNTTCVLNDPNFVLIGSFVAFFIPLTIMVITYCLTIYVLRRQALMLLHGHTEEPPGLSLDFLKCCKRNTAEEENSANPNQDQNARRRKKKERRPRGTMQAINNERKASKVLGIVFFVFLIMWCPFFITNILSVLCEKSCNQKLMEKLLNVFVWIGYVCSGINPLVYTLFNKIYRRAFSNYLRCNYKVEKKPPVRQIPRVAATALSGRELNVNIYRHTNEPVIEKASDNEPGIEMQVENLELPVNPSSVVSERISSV

For test [12], the target named is T5, 5-hydroxytryptamine receptor 3A (Homo sapiens) (UniProt P46098).
T5 sequence (whole entry): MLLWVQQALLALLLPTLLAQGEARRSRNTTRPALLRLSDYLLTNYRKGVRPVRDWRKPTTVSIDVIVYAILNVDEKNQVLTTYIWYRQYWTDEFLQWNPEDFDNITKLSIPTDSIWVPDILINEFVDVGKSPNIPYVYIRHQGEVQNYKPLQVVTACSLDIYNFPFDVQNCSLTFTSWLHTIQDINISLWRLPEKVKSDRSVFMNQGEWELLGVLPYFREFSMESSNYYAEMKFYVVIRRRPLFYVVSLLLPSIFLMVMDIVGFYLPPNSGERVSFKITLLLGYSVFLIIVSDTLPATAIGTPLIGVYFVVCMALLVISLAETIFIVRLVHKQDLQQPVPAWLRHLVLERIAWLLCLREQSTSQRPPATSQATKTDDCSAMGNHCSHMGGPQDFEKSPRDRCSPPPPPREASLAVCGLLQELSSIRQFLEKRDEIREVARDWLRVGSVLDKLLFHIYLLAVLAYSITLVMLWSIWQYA

The target in test [13] is 5-hydroxytryptamine receptor 5A (Homo sapiens) (UniProt P47898).
5-hydroxytryptamine receptor 5A (Homo sapiens), sequence (P47898 whole entry): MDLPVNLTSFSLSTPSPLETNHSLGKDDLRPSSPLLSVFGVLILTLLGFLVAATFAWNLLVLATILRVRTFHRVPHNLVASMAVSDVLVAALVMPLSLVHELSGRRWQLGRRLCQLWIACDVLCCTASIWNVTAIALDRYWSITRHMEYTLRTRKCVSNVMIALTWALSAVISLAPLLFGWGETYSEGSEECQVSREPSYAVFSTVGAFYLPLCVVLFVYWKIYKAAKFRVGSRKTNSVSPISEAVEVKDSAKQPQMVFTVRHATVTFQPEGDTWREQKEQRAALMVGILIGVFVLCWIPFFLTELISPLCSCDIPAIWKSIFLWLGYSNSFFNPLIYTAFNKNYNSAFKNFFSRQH
Test [14] concerns the target Sigma intracellular receptor 2 (Homo sapiens) (UniProt Q5BJF2).
The target of test [15] is Translocator protein (Homo sapiens) (UniProt P30536).
Translocator protein (Homo sapiens), sequence (P30536 whole entry): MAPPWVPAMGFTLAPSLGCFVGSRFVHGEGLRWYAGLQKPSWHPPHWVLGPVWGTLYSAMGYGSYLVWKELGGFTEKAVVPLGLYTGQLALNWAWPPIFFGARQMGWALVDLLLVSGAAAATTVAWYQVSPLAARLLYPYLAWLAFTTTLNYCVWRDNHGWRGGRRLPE
The target in test [16] is Kappa-type opioid receptor (Homo sapiens) (UniProt P41145).
Kappa-type opioid receptor (Homo sapiens), sequence (P41145 whole entry): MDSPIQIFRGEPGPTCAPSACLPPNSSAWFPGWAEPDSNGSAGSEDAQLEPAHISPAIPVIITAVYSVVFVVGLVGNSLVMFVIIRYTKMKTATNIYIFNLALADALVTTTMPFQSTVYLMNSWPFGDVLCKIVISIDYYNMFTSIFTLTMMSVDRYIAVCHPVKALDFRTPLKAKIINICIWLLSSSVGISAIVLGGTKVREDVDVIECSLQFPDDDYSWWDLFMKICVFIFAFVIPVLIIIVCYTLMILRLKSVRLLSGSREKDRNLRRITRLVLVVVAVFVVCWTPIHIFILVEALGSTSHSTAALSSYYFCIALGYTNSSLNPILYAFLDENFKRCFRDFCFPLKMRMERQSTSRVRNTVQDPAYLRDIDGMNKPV

A word on the inhibition: it is the change of the read-out against control, counted positive when it falls.

Sigma intracellular receptor 2 (Homo sapiens), sequence (Q5BJF2 whole entry): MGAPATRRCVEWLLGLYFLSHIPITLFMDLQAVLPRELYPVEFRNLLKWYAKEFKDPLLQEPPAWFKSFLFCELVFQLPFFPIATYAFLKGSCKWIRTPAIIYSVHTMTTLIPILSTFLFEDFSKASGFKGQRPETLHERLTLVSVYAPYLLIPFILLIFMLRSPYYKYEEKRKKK
Histamine H1 receptor (Homo sapiens), sequence (P35367 whole entry): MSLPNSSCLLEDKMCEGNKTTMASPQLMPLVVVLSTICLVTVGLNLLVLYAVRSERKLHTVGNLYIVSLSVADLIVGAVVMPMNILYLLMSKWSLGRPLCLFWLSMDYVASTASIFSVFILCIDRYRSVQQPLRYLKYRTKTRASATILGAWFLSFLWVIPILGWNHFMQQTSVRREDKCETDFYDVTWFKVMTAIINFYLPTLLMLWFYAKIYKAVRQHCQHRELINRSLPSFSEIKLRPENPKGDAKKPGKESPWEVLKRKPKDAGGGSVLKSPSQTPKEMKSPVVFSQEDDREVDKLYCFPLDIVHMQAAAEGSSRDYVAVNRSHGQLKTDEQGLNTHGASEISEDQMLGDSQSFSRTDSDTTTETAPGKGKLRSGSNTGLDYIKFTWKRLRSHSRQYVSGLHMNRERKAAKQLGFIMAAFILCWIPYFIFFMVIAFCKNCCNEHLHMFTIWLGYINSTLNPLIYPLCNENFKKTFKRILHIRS

Take `CCc1cc2c(cc1CC)CC(NC[C@H](O)c1ccc(O)c3[nH]c(=O)ccc13)C2`: the inhibition in [1] was 30%; in test [2] it was 94.3%; in [3], 58.8%; in test [4], 24.2%; in [5], 34.9%; in test [6], 4.91%. Also, the inhibition in test [7] was 1.29%; in test [8] it was -6.64%; in test [9] it was 61.1%; in [10], 92.6%; in test [11], 66.8%; in test [12], -4.69%. Also, the inhibition in test [13] is 6.33%; in test [14], 96.5%.

For `CN1CCCC(n2nc(Cc3ccc(Cl)cc3)c3ccccc3c2=O)CC1` (stereo not drawn), the inhibition is 64.5% in test [1]; -8.69% in test [2]; 83.9% in test [3]; 85.5% in [4]; 1.53% in [6]; 5.72% in [7]. In addition, the inhibition was 57.6% in test [8]; 96.7% in test [9]; 89.5% in test [10]; 93.7% in test [11]; 96.4% in test [12]; 80.8% in [13]. For the same compound, the inhibition in test [14] was 97%; in test [15], 12.9%.

Take `COc1cc2nc(N3CCN(C(=O)c4ccco4)CC3)nc(N)c2cc1OC`: the inhibition in test [1] is 97.1%; in [2] it was 1.53%; in test [3], 37.6%; in test [4] it was 27.4%; in test [6], 1.83%; in test [7], 8.03%. For the same compound, the inhibition in test [8] is 2.33%; in [10], 54.3%; in test [11], 3.9%; in [12], 2.09%; in [13] it was 83.4%; in [16], 11%. Moreover, the inhibition was 27.6% in test [14] and 75.9% in test [15].

For the compound `COC(=O)[C@H]1[C@H]2C[C@H]3c4[nH]c5ccccc5c4CCN3C[C@H]2CC[C@@H]1O`, the inhibition in test [1] is 98.7%; in test [2], -6.47%; in test [3] it was 31%; in test [4] it was 40.2%; in [6] it was 8.74%; in test [7] it was 1.62%. Also, the inhibition in test [8] was 96%; in [10] it was 94.3%; in [11] it was 2.54%; in [12], -2.94%; in [13], 48.2%; in test [16], 19%. Further, the inhibition in [14] was 22.8%; in [15], 7.14%.

Regarding `CCOC(=O)c1cc(C#N)c(N2CCC(C(=O)NS(=O)(=O)Cc3ccccc3)CC2)nc1C`, the inhibition in test [1] was -0.84%; in test [2] it was -1.62%; in [3], 50.8%; in test [4], 7.97%; in test [5] it was -6.11%; in [6], 6.28%. Further, the inhibition is -8.79% in test [8]; 5.11% in [9]; 6.09% in [11]; 3.98% in test [12]; -2.81% in [13]; 3.74% in [16]. In [14], the inhibition was 4.45%.

In the case of `CN1CCC(=C2c3ccccc3CC(=O)c3sccc32)CC1`, the inhibition in test [1] was 42.7%; in test [2], 25.3%; in [3], 80.2%; in test [4] it was 25.6%; in test [6] it was 26.2%; in test [7], 6.57%. The inhibition in test [8] was 27.9%; in [10] it was 98.4%; in test [11] it was 93.2%; in [12], 84.5%; in test [13], 43.5%; in test [16], 20.8%. In addition, the inhibition in [14] is 91.3%; in test [15] it was 6.55%.
